# Data taken from ChEMBL document CHEMBL5352493, “Dual inhibitors of ASK1 and PDK1 kinases: Design, synthesis, molecular docking and mechanism studies of N-benzyl pyridine-2-one containing derivatives as anti-fibrotic agents” (Eur J Med Chem, 2023).
# The source made the active and inactive calls. No cut-off for these calls is given here.
# Tests used:
# [1] = Antiproliferative against rat NRK-49F cells measured after 48 hrs by CCK8 assay; format: toxicity, cell-based
# [2] = Antiproliferative against HLF1 cells measured after 48 hrs by CCK8 assay; format: toxicity, cell-based; details: human, HFL1 cells (description prints HLF1)
# [3] = Antiproliferative against rat HSC-T6 cells measured after 48 hrs by CCK8 assay; format: toxicity, cell-based
# [4] = target: T1, Mitogen-activated protein kinase kinase kinase 5 (Homo sapiens, UniProt Q99683); experiment: Inhibition of human recombinant ASK1 using MBP as substrate preincubated for 1 hr followed by reagent addition incubated for 40 mins by ATP-Glo kinase assay
# T1 sequence (Q99683 whole entry): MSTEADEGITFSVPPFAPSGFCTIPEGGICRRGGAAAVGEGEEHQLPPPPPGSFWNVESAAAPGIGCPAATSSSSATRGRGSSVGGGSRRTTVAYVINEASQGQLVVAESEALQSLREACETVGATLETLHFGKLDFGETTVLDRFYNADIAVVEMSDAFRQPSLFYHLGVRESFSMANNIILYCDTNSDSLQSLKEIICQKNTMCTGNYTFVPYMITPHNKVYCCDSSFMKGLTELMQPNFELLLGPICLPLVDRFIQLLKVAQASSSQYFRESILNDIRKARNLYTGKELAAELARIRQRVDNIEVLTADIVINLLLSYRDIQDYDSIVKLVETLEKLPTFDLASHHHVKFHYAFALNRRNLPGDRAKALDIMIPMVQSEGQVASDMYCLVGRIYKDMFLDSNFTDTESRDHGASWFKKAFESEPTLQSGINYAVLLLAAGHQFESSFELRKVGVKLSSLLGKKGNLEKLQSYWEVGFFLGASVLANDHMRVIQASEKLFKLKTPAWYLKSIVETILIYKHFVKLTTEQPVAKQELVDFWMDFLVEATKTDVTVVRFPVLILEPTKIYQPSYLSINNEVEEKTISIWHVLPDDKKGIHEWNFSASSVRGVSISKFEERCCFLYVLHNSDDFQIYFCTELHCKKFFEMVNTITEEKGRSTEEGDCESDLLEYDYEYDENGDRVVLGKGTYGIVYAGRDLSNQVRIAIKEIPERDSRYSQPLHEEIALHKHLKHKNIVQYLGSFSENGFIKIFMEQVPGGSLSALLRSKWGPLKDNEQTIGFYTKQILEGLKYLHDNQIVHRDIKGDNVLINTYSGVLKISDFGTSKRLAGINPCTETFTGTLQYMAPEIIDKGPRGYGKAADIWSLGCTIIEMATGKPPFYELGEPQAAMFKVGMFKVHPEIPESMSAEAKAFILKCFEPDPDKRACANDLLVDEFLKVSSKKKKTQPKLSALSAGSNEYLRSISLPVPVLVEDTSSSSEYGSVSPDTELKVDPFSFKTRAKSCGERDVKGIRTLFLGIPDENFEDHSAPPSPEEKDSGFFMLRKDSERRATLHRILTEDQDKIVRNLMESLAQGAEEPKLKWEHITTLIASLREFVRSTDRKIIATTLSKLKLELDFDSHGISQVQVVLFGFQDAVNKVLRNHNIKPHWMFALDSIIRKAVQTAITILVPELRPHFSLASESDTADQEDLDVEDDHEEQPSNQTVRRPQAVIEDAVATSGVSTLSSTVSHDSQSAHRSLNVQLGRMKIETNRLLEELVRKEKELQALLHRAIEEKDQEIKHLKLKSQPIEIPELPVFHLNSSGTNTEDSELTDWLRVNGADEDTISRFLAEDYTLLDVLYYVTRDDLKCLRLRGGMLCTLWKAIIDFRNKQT
# [5] = Antiproliferative against human BEAS-2B cells measured after 48 hrs by CCK8 assay; format: toxicity, cell-based
# HFL1 [6] = experiment: Downregulation of phosphorylated ASK1 in TGF-beta1 induced HFL1 cells at 5 to 10 uM for 24 hrs by Western blotting analysis; format: functional, cell-based; details: Homo sapiens, dose 5-10 µM
# HFL1 [7] = experiment: Downregulation of phosphorylated p38 in TGF-beta1 induced HFL1 cells at 5 to 10 uM for 24 hrs by Western blotting analysis; format: functional, cell-based; details: Homo sapiens, dose 5-10 µM
# HFL1 [8] = experiment: Downregulation of phosphorylated JNK in TGF-beta1 induced HFL1 cells at 5 to 10 uM for 24 hrs by Western blotting analysis; format: functional, cell-based; details: Homo sapiens, dose 5-10 µM
# HFL1 [9] = experiment: Downregulation of phosphorylated PDK1 in TGF-beta1 induced HFL1 cells at 5 to 10 microM for 24 hrs by Western blotting analysis; format: functional, cell-based; details: Homo sapiens, dose 5-10 µM
# HFL1 [10] = experiment: Downregulation of phosphorylated Akt in TGF-beta1 induced HFL1 cells at 10 microM for 24 hrs by Western blotting analysis; format: functional, cell-based; details: Homo sapiens
# HFL1 [11] = experiment: Antifibrotic activity in TGF-beta1 induced HLF1 cells assessed as decrease in alpha SMA expression level measured at 5 to 10 uM after 24 hrs by Western blotting analysis; format: functional, cell-based; details: Homo sapiens, dose 5-10 µM
# HFL1 [12] = experiment: Antifibrotic activity in TGF-beta1 induced HLF1 cells assessed as decrease in collagen-I expression level measured at 5 to 10 uM after 24 hrs by Western blotting analysis; format: functional, cell-based; details: Homo sapiens, dose 5-10 µM
# HFL1 [13] = experiment: Antifibrotic activity in TGF-beta1 induced HLF1 cells assessed as decrease in phosphorylated smad2 level measured at 5 to 10 uM after 24 hrs by Western blotting analysis; format: functional, cell-based; details: Homo sapiens, dose 5-10 µM
# HFL1 [14] = experiment: Antifibrotic activity in TGF-beta1 induced HLF1 cells assessed as decrease in phosphorylated smad3 level measured at 5 to 10 uM after 24 hrs by Western blotting analysis; format: functional, cell-based; details: Homo sapiens, dose 5-10 µM
# HFL1 [15] = experiment: Induction of apoptosis in HLF1 cells assessed as decrease in antiapoptotic Bcl-2 protein at 5 to 10 uM for 24 hrs by Western blotting analysis; format: functional, cell-based; details: Homo sapiens, dose 5-10 µM
# HFL1 [16] = experiment: Induction of apoptosis in HLF1 cells assessed as viable cells at 5 uM incubated for 24 hrs measured by annexinV-FITC/PI based flow cytometric analysis (reference value: 88.3%); format: functional; details: Homo sapiens, read-out: Activity
# HFL1 [17] = experiment: Induction of apoptosis in HLF1 cells assessed as early apoptotic cells at 5 uM incubated for 24 hrs measured by annexinV-FITC/PI based flow cytometric analysis (reference value: 11.6%); format: functional, Homo sapiens
# HFL1 [18] = experiment: Induction of apoptosis in HLF1 cells assessed as late apoptotic cells at 5 uM incubated for 24 hrs measured by annexinV-FITC/PI based flow cytometric analysis (reference value: 0.08%); format: functional, Homo sapiens
# HFL1 [19] = experiment: Induction of apoptosis in HLF1 cells assessed as necrotic cells at 5 uM incubated for 24 hrs measured by annexinV-FITC/PI based flow cytometric analysis (reference value: 0%); format: functional, Homo sapiens
# HFL1 [20] = experiment: Induction of apoptosis in HLF1 cells assessed as viable cells at 10 uM incubated for 24 hrs measured by annexinV-FITC/PI based flow cytometric analysis (reference value: 88.3%); format: functional; details: Homo sapiens, read-out: Activity
# HFL1 [21] = experiment: Induction of apoptosis in HLF1 cells assessed as early apoptotic cells at 10 uM incubated for 24 hrs measured by annexinV-FITC/PI based flow cytometric analysis (reference value: 11.6%); format: functional, Homo sapiens
# HFL1 [22] = experiment: Induction of apoptosis in HLF1 cells assessed as late apoptotic cells at 10 uM incubated for 24 hrs measured by annexinV-FITC/PI based flow cytometric analysis (reference value: 0.08%); format: functional, Homo sapiens
# HFL1 [23] = experiment: Induction of apoptosis in HLF1 cells assessed as necrotic cells at 10 uM incubated for 24 hrs measured by annexinV-FITC/PI based flow cytometric analysis (reference value: 0%); format: functional, Homo sapiens
# HFL1 [24] = experiment: Induction of apoptosis in HLF1 cells assessed as viable cells at 15 uM incubated for 24 hrs measured by annexinV-FITC/PI based flow cytometric analysis (reference value: 88.3%); format: functional; details: Homo sapiens, read-out: Activity
# HFL1 [25] = experiment: Induction of apoptosis in HLF1 cells assessed as early apoptotic cells at 15 uM incubated for 24 hrs measured by annexinV-FITC/PI based flow cytometric analysis (reference value: 11.6%); format: functional, Homo sapiens
# HFL1 [26] = experiment: Induction of apoptosis in HLF1 cells assessed as late apoptotic cells at 15 uM incubated for 24 hrs measured by annexinV-FITC/PI based flow cytometric analysis (reference value: 0.08%); format: functional, Homo sapiens
# HFL1 [27] = experiment: Induction of apoptosis in HLF1 cells assessed as necrotic cells at 15 uM incubated for 24 hrs measured by annexinV-FITC/PI based flow cytometric analysis (reference value: 0%); format: functional, Homo sapiens
compound,measurement,setting,value
CC(C)n1cc(-c2cc(C(=O)Nc3cccc(-c4nncn4C4CC4)n3)c(=O)n(Cc3ccccc3F)c2)cn1,IC50 at 48 h,[1],14.8 µM
same,IC50 at 48 h,[2],9.2 µM
same,IC50 at 48 h,[3],25 µM
same,IC50,[4],0.00913 µM
same,IC50 at 48 h,[5],33 µM
same,Activity,HFL1 [6],Active
same,Activity,HFL1 [7],Active
same,Activity,HFL1 [8],Active
same,Activity,HFL1 [9],Dose-Dependent Effect
same,Activity,HFL1 [10],Active
same,Activity,HFL1 [11],Dose-Dependent Effect
same,Activity,HFL1 [12],Dose-Dependent Effect
same,Activity,HFL1 [13],Active
same,Activity,HFL1 [14],Active
same,Activity,HFL1 [15],Active
same,viability at 5 µM,HFL1 [16],80.5%
same,Activity,HFL1 [17],19.4%
same,Activity,HFL1 [18],0.092%
same,Activity,HFL1 [19],0%
same,viability at 10 µM,HFL1 [20],74.3%
same,Activity,HFL1 [21],25.6%
same,Activity,HFL1 [22],0.034%
same,Activity,HFL1 [23],0%
same,viability at 15 µM,HFL1 [24],69.9%
same,Activity,HFL1 [25],30%
same,Activity,HFL1 [26],0.069%
same,Activity,HFL1 [27],0%
